# Experimental data reported in patent US4996227A, “3-(heteroarylalkyene)- and 3-(arylalkylene)-2,4(3H,5H)-heterocyclic diones as cancer chemotherapy drugs” (priority 1989, dated 1991).
# Where two headings read alike, the source gives them in different places.
# Experiments:
# [1] = test system: KS62 strain stem-cell human leukemia cells; assay: Inhibition of human leukemia cell growth in vitro, as done in Example 3; type: cell-based; details: Homo sapiens
# Description: A conventionally available cell line (K562) derived from human chronic granulocytic leukemia was employed in an in vitro procedure. The leukemia cell line was cultured in a suspension of RPMI 1640 plus 10% fetal calf serum. All initial cell concentrations for the cultures were 0.65 times 10^5 cells/ml. Four separate suspension cultures were employed with the first suspension culture having no additions. The second suspension culture included 100 microliters of the solvent DMSO per 10 ml of culture (control). The third culture contained 1 ug/ml of 3[[5-methyl-2 thienyl]methylene]-2, 4 (3H, 5H) furandione and the fourth culture contained 1 ug/ml of 3[[3-methyl-2-thienyl]methylene]-2, 4 (3H, 5H) furandione. The cell concentration of each of the four cultures was determined. After three days and again after five days.
# In this example, aliquots of 1.0, 5.0 and 10.0 mcg/ml of each of the family compounds was prepared and assayed against KS62 strain stem-cell human leukemia cells in an in vitro procedure as done in Example 3 above.
# human tumors = assay: Human Tumor Stem Cell Assay, summary over the tumor panel; type: cell-based; details: for activity at 1 µg/mL: Homo sapiens, 1.0 mcg/ml, 1 h
# Description: The in vitro Human Tumor Stem Cell Assay procedure described as follows has several advantages for testing the effectiveness of chemotherapy drugs such as the 3-(heteroarylalkylene)-2,4(3H,5H)-furandiones. The first advantage is that fresh tumor cells from a variety of tumor types were used rather than a small number of cell lines which have undergone severe selection pressures as they are passed in vitro. The second advantage is that only the anchorage-independent tumor cells will form colonies in soft agar so that any non-malignant cells present in the sample will not form colonies. Perhaps the most important advantage, however, is the emphasis on cells which have the ability to form colonies. These cells, which are generally called stem cells, usually comprise only a small percentage of all tumor cells. They are thought to be the most important cells for growth and distant spread of a tumor. In particular, these cells have the potential to leave the primary tumor and form new tumors at distant sites (called metastases). It is the effectiveness against these very important stem cells that the Human Tumor Stem Cell Assay measures.
# One of the 3-(heteroarylalkylene)-2,4(3H,5H)-furandione compounds, 3-[(5-methyl-2-thienyl) methylene]-2,4(3H,5H)-furandione was evaluated against a series of 10 human tumors in the in vitro Human Tumor Cell Assay, along with conventional and standard chemotherapy agents.
# In the procedure, a single cell suspension was prepared from tumors excised from patients during therapeutic or diagnostic surgical procedures. The human tumor cells were exposed to known anticancer drugs or to [(5-methyl-2-thienyl)methylene]-2,4 (3H, 5H)-furandione at a low (0.2 mcg/ml) or a high (1.0 mcg/ml) concentration for one hour. […] The suspension was washed with tissue culture medium to remove the drug.
# The suspension was then cultured in a double soft agar suspension. Control cells which had been treated identically, except for exposure to the drugs, were also cultured. After one to two weeks, both the tumor cells and the control cells formed colonies in the soft agar which were enumerated under a microscope. The number of colonies grown from the drug-treated cells was compared to the number of colonies grown from the control cells, and the percentage growth after exposure to the drug was calculated.
# The results are illustrated in Table 1, wherein the various numbers indicate the percentage of growth. For example, a small number like 6 means that the number of colonies is only 6% of the number without addition of the compound. On the other hand, a large number like 120 means that the number of colonies is 20% greater with the compound than without. […]
# human tumor H5331 OVARY = assay: Human Tumor Stem Cell Assay, colony growth after one hour exposure; type: cell-based; details: 1 h
# human tumor H5318 OVARY = assay: as above; type: cell-based; details: HI: furandione 1.0 mcg/ml; standard drugs 50% of peak plasma concentration; 1 h
# [2] = test system: human tumor H5325 SARCOMA; assay: as above; type: cell-based; details: 1 h
# human tumor H5337 COLON = assay: as above; type: cell-based; details: 1 h
# [3] = test system: human tumor H5322 STOMACH; assay: as above; type: cell-based; details: 1 h
# human tumor H5319 BREAST = assay: as above; type: cell-based; details: 1 h
# human tumor H5330 THYMUS = assay: as above; type: cell-based; details: 1 h
# healthy mice = assay: Toxicology testing in healthy mice: pathological evaluation; type: in vivo
# Description: The purpose of this example was to determine approximate toxicity of the compound 3[(5-methyl-2-thienyl) methylene]-2,4(3H,5H)-furandione in healthy mice. The in vivo concentrations employed in the example were selected by using the in vitro results in the Human Tumor Stem Cell Assay as a guide. The compound was given to the mice by means of intra-peritoneal injection. In addition to a control group which was injected with the appropriate carrier solution without drug, three test groups with calculated plasma concentrations of 1, 10 and 100 mcg/ml (low, medium and high concentrations) were prepared. Based upon the results from Table 1, the three test groups represent low, medium and high concentrations of drug dosages. The highest concentration of 100 mcg/ml is about 10 times the predicted effective dose (in vivo) of tumoricidal activity. Each group contained eight animals. Blood was extracted from four animals in each group two days after the intraperitoneal injection and routine hematology (i.e., a hemoglobin concentration, a white blood cell count, and a neutrophil count) procedures were performed.
# As previously stated, half of the animals in each group were sacrificed after one week (Day 7), and the remaining animals were sacrificed after two weeks (Day 14). […]
# [4] = HI: furandione 1.0 mcg/ml, standard drugs 50% of peak plasma concentration
# [5] = LO: furandione 0.2 mcg/ml, standard drugs 10% of peak plasma concentration
compound,measurement,setting,value
"Cc1ccc(C=C2C(=O)COC2=O)s1 [Compound 4, 3[(5-methyl-2-thienyl)methylene]2,4(3H,5H)-furandione]",inhibition at 1 µg/mL,[1]; 1.0 mcg/ml,32%
same,inhibition at 5 µg/mL,[1]; 5.0 mcg/ml,97%
same,inhibition at 10 µg/mL,[1]; 10.0 mcg/ml,100%
same,activity at 1 µg/mL,"human tumors; five of nine tumors, read-out: growth, borderline sensitive tumors",30 to 50%
same,activity at 1 µg/mL,"human tumors; four of nine tumors, read-out: growth, sensitive tumors",0 to 30%
same,peak plasma concentration at which compound should be effective in vivo,human tumors; by analogy with other chemotherapy drugs,10 µg/mL
same,activity against human solid tumors in vitro,"human tumors; one hour exposure, 1 mcg/ml",extremely active against a wide variety of human solid tumors in vitro
same,percentage of growth (colonies vs control),human tumor H5331 OVARY; [4],48%
same,percentage of growth (colonies vs control),human tumor H5331 OVARY; [5],64%
same,percentage of growth (colonies vs control),human tumor H5318 OVARY,29%
same,percentage of growth (colonies vs control),[2]; [4],22%
same,percentage of growth (colonies vs control),[2]; [5],44%
same,percentage of growth (colonies vs control),human tumor H5337 COLON; [4],36%
same,percentage of growth (colonies vs control),human tumor H5337 COLON; [5],58%
same,percentage of growth (colonies vs control),[3]; [4],36%
same,percentage of growth (colonies vs control),[3]; [5],68%
same,percentage of growth (colonies vs control),human tumor H5319 BREAST; [4],6%
same,percentage of growth (colonies vs control),human tumor H5319 BREAST; [5],210%
same,percentage of growth (colonies vs control),human tumor H5330 THYMUS; [4],38%
same,percentage of growth (colonies vs control),human tumor H5330 THYMUS; [5],79%
same,"pathology of organs, bone, brain, etc.","healthy mice; all dose groups, 7 or 14 days",not remarkably altered within the testing period
same,"pathology of organs, bone, etc., vs low concentration and control groups",healthy mice; high concentrations,"do not appear to affect any of the organs, bone, etc. of the test animals to any lesser or greater degree than the low concentration drug group or the control group"
